Consider eleven molecules from US20030166932A1 (priority 2002, published 2003).

Some results are limits rather than exact numbers.

Test [1] addresses T1, RXRβ (UniProt P28704).
T1 sequence (P28704 1-520): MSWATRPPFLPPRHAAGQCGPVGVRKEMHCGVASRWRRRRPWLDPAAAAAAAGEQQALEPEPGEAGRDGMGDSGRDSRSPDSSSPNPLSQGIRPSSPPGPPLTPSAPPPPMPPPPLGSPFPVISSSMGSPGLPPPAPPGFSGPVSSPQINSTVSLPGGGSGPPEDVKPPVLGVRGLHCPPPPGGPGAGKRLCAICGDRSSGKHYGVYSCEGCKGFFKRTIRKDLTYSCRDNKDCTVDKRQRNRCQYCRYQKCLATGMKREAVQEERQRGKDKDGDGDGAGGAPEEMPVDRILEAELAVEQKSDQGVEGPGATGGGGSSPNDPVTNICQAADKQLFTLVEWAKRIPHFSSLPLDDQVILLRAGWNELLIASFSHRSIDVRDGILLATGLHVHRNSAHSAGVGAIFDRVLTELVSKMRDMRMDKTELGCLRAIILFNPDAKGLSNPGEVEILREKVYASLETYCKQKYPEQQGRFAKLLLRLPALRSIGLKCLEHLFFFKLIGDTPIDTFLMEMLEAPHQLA
Briefly: holoreceptor transactivation assay. The class given is cell-based. The following applies: for EC50: NA = Not Active, read-out: RXR Trans. EC50 (nM) β; for % efficacy, RXR Trans. β: relative to 10^−6 M AGN 194204.
Description: (§1) The results obtained in this assay are expressed in EC50 numbers, as they are also in the chimeric receptor transactivation assay. The results of ligand binding assay are expressed in Kd numbers.
(§2) Particularly, the transactivation data pertaining to RAR receptors were obtained in the chimeric assay, and the data pertaining to transactivation of RXR receptors were obtained in the holoreceptor transactivation assay.

For test [2], the target named is T2, RXRγ (UniProt P28705).
T2 sequence (P28705 1-463): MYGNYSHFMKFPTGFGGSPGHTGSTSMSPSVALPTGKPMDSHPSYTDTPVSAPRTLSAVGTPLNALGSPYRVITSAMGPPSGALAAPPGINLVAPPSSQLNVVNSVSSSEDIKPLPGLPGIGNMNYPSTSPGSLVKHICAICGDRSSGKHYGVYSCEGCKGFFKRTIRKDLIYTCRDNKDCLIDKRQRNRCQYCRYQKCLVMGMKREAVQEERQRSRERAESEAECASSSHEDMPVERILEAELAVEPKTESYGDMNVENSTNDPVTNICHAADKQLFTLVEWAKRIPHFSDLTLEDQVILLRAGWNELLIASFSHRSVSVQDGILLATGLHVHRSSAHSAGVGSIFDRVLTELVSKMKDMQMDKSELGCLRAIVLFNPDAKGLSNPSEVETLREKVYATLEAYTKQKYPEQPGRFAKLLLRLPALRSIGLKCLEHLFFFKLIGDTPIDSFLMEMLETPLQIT
Nature of the test: holoreceptor transactivation assay. It is filed as cell-based. The following applies: for EC50: NA = Not Active, read-out: RXR Trans. EC50 (nM) Y; for % efficacy, RXR Trans. Y: relative to 10^−6 M AGN 194204.
Description: as §1, §2

The target in test [3] is T3, RARβ (Homo sapiens, UniProt P10826).
T3 sequence (P10826 1-455): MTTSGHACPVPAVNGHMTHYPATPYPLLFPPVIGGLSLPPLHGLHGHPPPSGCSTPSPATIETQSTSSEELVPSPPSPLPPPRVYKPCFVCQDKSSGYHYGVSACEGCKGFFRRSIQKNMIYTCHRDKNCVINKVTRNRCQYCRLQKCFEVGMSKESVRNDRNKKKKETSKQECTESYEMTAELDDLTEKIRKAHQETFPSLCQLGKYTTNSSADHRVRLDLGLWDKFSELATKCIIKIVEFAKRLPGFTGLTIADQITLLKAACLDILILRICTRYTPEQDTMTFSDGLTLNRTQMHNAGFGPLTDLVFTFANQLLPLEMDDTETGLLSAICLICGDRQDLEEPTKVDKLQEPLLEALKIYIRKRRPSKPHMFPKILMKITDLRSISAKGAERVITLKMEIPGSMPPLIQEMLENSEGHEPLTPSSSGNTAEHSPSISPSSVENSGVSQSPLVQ
Nature of the test: ligand binding assay. Conditions: read-out: RAR Bind. Ki (nM) β.
Description: as §1, §2

For test [4], the target named is T4, RARγ (Homo sapiens, UniProt P13631).
T4 sequence (P13631 1-454): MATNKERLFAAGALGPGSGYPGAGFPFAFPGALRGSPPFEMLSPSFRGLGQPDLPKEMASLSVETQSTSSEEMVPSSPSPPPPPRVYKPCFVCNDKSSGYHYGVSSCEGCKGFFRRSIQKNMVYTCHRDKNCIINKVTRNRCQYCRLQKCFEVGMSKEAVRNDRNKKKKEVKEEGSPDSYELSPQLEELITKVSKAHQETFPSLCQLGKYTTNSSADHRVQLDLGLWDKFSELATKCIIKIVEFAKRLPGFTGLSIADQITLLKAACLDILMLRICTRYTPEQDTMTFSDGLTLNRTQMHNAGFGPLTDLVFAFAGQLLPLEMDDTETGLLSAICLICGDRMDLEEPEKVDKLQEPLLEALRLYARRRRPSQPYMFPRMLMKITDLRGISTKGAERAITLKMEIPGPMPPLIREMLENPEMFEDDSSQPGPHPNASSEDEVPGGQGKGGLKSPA
Nature of the test: ligand binding assay. The following applies: read-out: RAR Bind. Ki (nM) Y.
Description: as §1, §2

The target in test [5] is T1, RXRβ. Nature of the test: ligand binding assay. The following applies: read-out: RXR Bind Ki (nM) β.
Description: as §1, §2
In test [6] the target is T5, RXRα (Homo sapiens, UniProt P19793).
T5 sequence (P19793 1-462): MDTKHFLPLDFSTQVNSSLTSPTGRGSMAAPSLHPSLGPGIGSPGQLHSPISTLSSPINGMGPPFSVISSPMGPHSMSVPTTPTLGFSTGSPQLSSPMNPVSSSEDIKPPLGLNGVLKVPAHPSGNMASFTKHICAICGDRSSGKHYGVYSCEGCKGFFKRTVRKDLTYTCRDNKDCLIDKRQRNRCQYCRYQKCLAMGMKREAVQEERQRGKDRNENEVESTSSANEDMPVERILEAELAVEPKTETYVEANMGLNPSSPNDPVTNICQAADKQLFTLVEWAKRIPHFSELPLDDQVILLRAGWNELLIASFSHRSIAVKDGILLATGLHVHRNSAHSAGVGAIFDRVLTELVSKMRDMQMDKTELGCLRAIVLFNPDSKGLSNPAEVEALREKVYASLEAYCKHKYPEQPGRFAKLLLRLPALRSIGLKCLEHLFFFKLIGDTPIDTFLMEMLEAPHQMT
Nature of the test: ligand binding assay.
Description: as §1, §2

For test [7], the target named is T5, RXRα. Briefly: holoreceptor transactivation assay. Conditions: for Emax: read-out: % efficacy, RXR Trans. α.
Description: as §1, §2
The target of test [8] is T2, RXRγ. Nature of the test: ligand binding assay. The following applies: read-out: RXR Bind Ki (nM) Y.

Turning to `CCN(c1ccc(C(=O)O)cc1)c1cc2c(cc1C)C(C)(C)CC=C2C(C)C` [Compound 25, 4-[Ethyl(8-isopropyl-3,5,5-trimethyl-5,6-dihydronaphthalen-2-yl)amino]benzoic acid], the EC50 (in general, the concentration at which the effect is half-maximal) in test [1] was 0.9 nM; in test [2], 0.2 nM; in test [7], below 0.1 nM. The “% efficacy, RXR Trans. β” value in test [1] is on record as “(96) %”. In addition, the “% efficacy, RXR Trans. Y” value in test [2] is given as “(105) %”. Further, the Ki – broadly, a dissociation constant, usually derived from enzyme kinetics or from competition with a known ligand – in test [3] is 6400 nM; in test [4] it was 4400 nM; in test [5] it was 20 nM; in test [6], 2 nM. Further, the Emax in test [7] came to 97%.
Turning to `Cc1cc2c(cc1N(C)c1ccc(C(=O)O)cc1)C(C)(C)CC=C2C(C)C` [Compound 52, 4-[Methyl-(5-isopropyl-3,8,8-trimethyl-7,8-dihydronaphthalen-2-yl)amino]benzoic acid], the EC50 in test [1] was above 1000 nM. In test [1], the “% efficacy, RXR Trans. β” value is “(25) %”. Further, the “% efficacy, RXR Trans. Y” value in test [2] was “(855) %”. Also, the Ki in test [3] is above 10000 nM; in test [4], above 10000 nM; in test [5], 2700 nM; in test [6] it was 1700 nM. For the same molecule, in test [7], the Emax was found to be 75%.
For `CCN(c1ccc(C(=O)O)cc1)c1cc2c(cc1C)C(C(C)C)=CCC2(C)C` [Compound 53, 4-[Ethyl-(5-isopropyl-3,8,8-trimethyl-7,8-dihydronaphthalen-2-yl)amino]benzoic acid], the EC50 in test [1] is above 1000 nM. For the same molecule, the “% efficacy, RXR Trans. β” value in test [1] is recorded as “(20) %”. In test [2], the “% efficacy, RXR Trans. Y” value is “(75) %”. In addition, the Ki was above 10000 nM in test [3], above 10000 nM in test [4], above 1000 nM in test [5] and 1200 nM in test [6]. Besides, the Emax in test [7] was 65%.
Turning to `CCCN(c1ccc(C(=O)O)cc1)c1cc2c(cc1C)C(C(C)C)=CCC2(C)C` [Compound 54, 4-[n-Propyl-(5-isopropyl-3,8,8-trimethyl-7,8-dihydronaphthalen-2-yl)lamino]benzoic acid], the EC50 in test [1] is above 1000 nM; in test [7], 378 nM. Besides, in test [1], the “% efficacy, RXR Trans. β” value was “(40) %”. Also, the “% efficacy, RXR Trans. Y” value in test [2] is “(85) %”. Further, the inhibition constant Ki is above 10000 nM in test [3], above 10000 nM in test [4], above 1000 nM in test [5] and 485 nM in test [6]. The Emax in test [7] came to 66%.
Turning to `CCN(c1ccc(C(=O)O)cc1)c1cc2c(cc1C)C(C(C)(C)C)=CCC2(C)C` [Compound 60, 4-[Ethyl-(5-t-butyl-3,8,8-trimethyl-7,8-dihydronaphthalen-2-yl)amino]benzoic acid], in test [1], the “% efficacy, RXR Trans. β” value was “(60) %”. The figures for the EC50 in test [2] and in test [7] were 182 nM and 72 nM, respectively. Moreover, the “% efficacy, RXR Trans. Y” value in test [2] is “(124) %”. Further, the Ki is above 10000 nM in test [3], 426 nM in test [5], 101 nM in test [8] and 64 nM in test [6]. The Emax in test [7] was 88%.
As for `CC1=CCC(C)(C)c2cc(N(C)c3ccc(C(=O)O)cc3)ccc21` [Compound 67, 4-[Methyl-(5,8,8-trimethyl-7,8-dihydro-naphthalen-2-yl)-amino]-benzoic acid], the Ki in test [3] is above 10000 nM; in test [5], above 1000 nM; in test [8], 1300 nM; in test [6], 666 nM.
With `CCC1=CCC(C)(C)c2cc(N(CC)c3ccc(C(=O)O)cc3)ccc21` [Compound 75, 4-[Ethyl-(5-ethyl-8,8-dimethyl-7,8-dihydro-naphthalen-2-yl)-amino]-benzoic acid], the “% efficacy, RXR Trans. β” value in test [1] is “(75) %”. For the same molecule, the “% efficacy, RXR Trans. Y” value in test [2] is listed as “(95) %”. For the same molecule, the Ki in test [3] was above 10000 nM; in test [4], above 10000 nM; in test [5], 806 nM; in test [6] it was 442 nM. The same molecule had a half-maximal effective concentration (EC50) in test [7] of 319 nM. The Emax in test [7] came to 100%.
With `CCCN(c1ccc(C(=O)O)cc1)c1ccc2c(c1)C(C(C)(C)C)=CCC2(C)C` [Compound 89], the EC50 in test [1] stood at 8 nM; in test [2] it was 1 nM; in test [7], 1 nM. In test [1], the “% efficacy, RXR Trans. β” value is recorded as “(93) %”. The “% efficacy, RXR Trans. Y” value in test [2] is reported as 105) %. The Ki in test [3] was above 10000 nM; in test [5] it was 34 nM; in test [8], 8 nM; in test [6] it was 7 nM. For the same molecule, the Emax in test [7] came out at 108%.
As for `CCCOc1cc2c(cc1N(CC)c1ccc(C(=O)O)cc1)C(C(C)C)=CCC2(C)C` [Compound 150, 4-[Ethyl-(8-isopropyl-5,5-dimethyl-3-n-propoxy-5,6-dihydronaphthalen-2-yl)amino]benzoic acid], the Ki in test [3] turned out to be 3800 nM; in test [4] it was 7900 nM; in test [5] it was 208 nM; in test [8] it was 352 nM; in test [6] it was 61 nM.
For the molecule `CCN(c1ccc(C(=O)O)cc1)c1cc2c(cc1OC(C)C)C(C)(C)CC=C2C(C)C` [Compound 151, 4-[Ethyl-(3-isopropoxy-5,5-dimethyl-8-isopropyl-5,6-dihydronaphthalen-2-yl)amino]benzoic acid], the inhibition constant Ki is 1200 nM in test [3]; above 10000 nM in test [4]; 155 nM in test [5]; 248 nM in test [8]; 54 nM in test [6].
On to `CCCCOc1cc2c(cc1N(CC)c1ccc(C(=O)O)cc1)C(C(C)C)=CCC2(C)C` [Compound 152, 4-[(3-n-Butoxy-8-isopropyl-5,5-dimethyl-5,6-dihydronaphthalen-2-yl)ethylamino]benzoic acid], for which the Ki in test [3] is 2300 nM; in test [5], 136 nM; in test [8] it was 437 nM; in test [6], 29 nM.
